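Protocol summary: plate cells (96-well), add compound at 5 concentrations, incubate 48 h, interpolate endpoints linearly. Here, GI50 denotes the concentration required for 50% inhibition of growth. TGI: total growth inhibition.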

Among the test systems are COLO 205 colon; LOX IMVI melanoma; MALME-3M melanoma; HT29 colon; EKVX NSCLC; NCI-H460 lung; M14 melanoma; HCC-2998 colon; CAKI-1 renal.
Common to all, as to test: NCI tumour cell line growth inhibition, 48 h

In the case of `C[N+](C)(C)C1CC([N+](C)(C)C)C2c3ccccc3C21` (stereo not drawn), the TGI in the test on COLO 205 colon, in the test on LOX IMVI melanoma, with MALME-3M melanoma, in the test with HT29 colon, with EKVX NSCLC and in the test on NCI-H460 lung was > 100 µM in each case. Moreover, the TGI with M14 melanoma, with HCC-2998 colon and in the test with CAKI-1 renal was > 100 µM throughout.

As for `Cc1[nH]c2ccccc2c1C1=NO/C(=N\O)C(c2c(C)[nH]c3ccccc23)C1` (stereo not drawn), the TGI in the test on COLO 205 colon is 41 µM; with MALME-3M melanoma, > 100 µM; with HT29 colon, 58.9 µM; in the test with EKVX NSCLC, > 100 µM; in the test with NCI-H460 lung, > 67.6 µM; with M14 melanoma, > 89.6 µM. The TGI with HCC-2998 colon and in the test on CAKI-1 renal was > 100 µM each time.

On to `CN=C1CN=C(OP(=O)(N2CCOCC2)N2CCOCC2)c2cc(Cl)ccc2N1`, for which the TGI in the test on LOX IMVI melanoma, in the test on MALME-3M melanoma, in the test with HT29 colon, with EKVX NSCLC, in the test with NCI-H460 lung and with M14 melanoma was > 100 µM throughout. The TGI in the test with HCC-2998 colon and in the test with CAKI-1 renal was > 100 µM in each case.

Consider `Brc1ccc(C=NC23CC4CC(CC(C4)C2)C3)cc1`, for which the TGI in the test on COLO 205 colon, in the test on LOX IMVI melanoma, in the test on MALME-3M melanoma, in the test with HT29 colon, in the test on EKVX NSCLC and with NCI-H460 lung was > 100 µM throughout. The TGI in the test with M14 melanoma, with HCC-2998 colon and with CAKI-1 renal was > 100 µM throughout.

Consider `CC(=O)OC1=C2CC[C@@H]3C(CC[C@@]4(C)C3CC[C@@H]4OC(C)=O)[C@@]2(C)CC(C#N)C1=O` (stereo partly drawn), for which the TGI with COLO 205 colon was 43.5 µM; with LOX IMVI melanoma it was > 100 µM; in the test with MALME-3M melanoma, > 100 µM; in the test with HT29 colon it was > 100 µM; in the test with EKVX NSCLC, > 100 µM; with NCI-H460 lung it was 74.4 µM. For the same compound, the TGI in the test on M14 melanoma and in the test with HCC-2998 colon was > 100 µM throughout.

Regarding `CCC[CH2][Sn]1([CH2]CCC)[O]CC[S]1`, the GI50 with COLO 205 colon was 0.969 µM; in the test on LOX IMVI melanoma it was 0.459 µM; with MALME-3M melanoma, 0.299 µM; in the test with HT29 colon, 1.27 µM; in the test with EKVX NSCLC, 0.749 µM; in the test on NCI-H460 lung, 1.77 µM. The values for the GI50 with M14 melanoma, in the test on HCC-2998 colon and with CAKI-1 renal were 0.872 µM, 1.05 µM and 0.221 µM, respectively. The TGI in the test on COLO 205 colon is 3.29 µM; in the test on LOX IMVI melanoma it was 1.7 µM; in the test on MALME-3M melanoma, 1.39 µM; in the test on HT29 colon it was 2.81 µM; in the test with EKVX NSCLC it was 2.1 µM; in the test with NCI-H460 lung it was 3.72 µM. Also, the TGI with M14 melanoma worked out at 2.68 µM; in the test on HCC-2998 colon it was 2.26 µM; in the test on CAKI-1 renal, 1.51 µM.

For the compound `C/C(=C\C(C[C@](C)(O)C(O)CCC#C[Si](C)(C)C)S(=O)(=O)c1ccccc1)CC/C=C/CO[Si](C)(C)C(C)(C)C` (stereo partly drawn), the TGI in the test with LOX IMVI melanoma was found to be 28.7 µM; in the test on MALME-3M melanoma it was 40.4 µM; in the test with HT29 colon, 12.7 µM; in the test on EKVX NSCLC, 38.4 µM; with NCI-H460 lung, 27 µM; in the test on M14 melanoma it was 34 µM. In addition, the TGI came out at 40.6 µM in the test on HCC-2998 colon and 33 µM in the test on CAKI-1 renal.

For the compound `[Co].[O-]c1cccnc1C=Nc1ccccc1.[OH3+]`, the GI50 in the test with COLO 205 colon, in the test with LOX IMVI melanoma, with MALME-3M melanoma, in the test with HT29 colon, in the test on EKVX NSCLC and in the test with NCI-H460 lung was > 100 µM in each case. In the test with M14 melanoma, the GI50 is > 100 µM. The TGI in the test with COLO 205 colon, in the test on LOX IMVI melanoma, with MALME-3M melanoma, in the test on HT29 colon, in the test on EKVX NSCLC and in the test on NCI-H460 lung was > 100 µM throughout. For the same compound, in the test with M14 melanoma, the TGI was > 100 µM.

Turning to `CC[O-].CC[O-].O=C([CH-]C(=O)c1ccccc1)CCCCCCC(=O)[CH-]C(=O)c1ccccc1.[Ti+4]`, the GI50 in the test on COLO 205 colon, in the test on LOX IMVI melanoma, in the test with MALME-3M melanoma, in the test on HT29 colon, in the test on EKVX NSCLC and in the test on NCI-H460 lung was > 100 µM in each case. Further, the GI50 in the test on M14 melanoma, in the test on HCC-2998 colon and in the test on CAKI-1 renal was > 100 µM throughout. The TGI with COLO 205 colon, with LOX IMVI melanoma, in the test with MALME-3M melanoma, in the test with HT29 colon, in the test on EKVX NSCLC and in the test on NCI-H460 lung was > 100 µM throughout. Moreover, the TGI in the test on M14 melanoma, with HCC-2998 colon and in the test with CAKI-1 renal was > 100 µM each time.

In the case of `COc1ccccc1NC(=O)C1=C(C)NC(C)=C(C(=O)Nc2ccccc2OC)C1c1ccccc1Cl`, the TGI in the test with COLO 205 colon, in the test with LOX IMVI melanoma, in the test on MALME-3M melanoma, with HT29 colon, in the test with EKVX NSCLC and in the test on NCI-H460 lung was > 100 µM in each case. The TGI in the test on M14 melanoma, with HCC-2998 colon and in the test on CAKI-1 renal was > 100 µM throughout.

`O=C1NC2(CCCC2)C2CCCCC12O` (stereo not drawn): the TGI with COLO 205 colon, in the test with LOX IMVI melanoma, in the test on MALME-3M melanoma, in the test on HT29 colon, with EKVX NSCLC and with NCI-H460 lung was > 100 µM in each case. For the same compound, the TGI in the test on M14 melanoma and with CAKI-1 renal was > 100 µM in each case.

As to `C1C[OH+]CCNCC[OH+]CC[OH+]CCN1.N.[Cl-].[Pt+4]`, the GI50 is 18.9 µM in the test on COLO 205 colon; 33.2 µM in the test with LOX IMVI melanoma; > 100 µM in the test on MALME-3M melanoma; 43.7 µM in the test with HT29 colon; 93 µM in the test with NCI-H460 lung; 54.2 µM with M14 melanoma. The GI50 in the test with HCC-2998 colon is 54.1 µM; in the test with CAKI-1 renal it was 29 µM. Moreover, the TGI is 47.7 µM in the test with COLO 205 colon; > 100 µM with LOX IMVI melanoma; > 100 µM in the test on MALME-3M melanoma; > 100 µM with HT29 colon; > 100 µM in the test on NCI-H460 lung; > 100 µM with M14 melanoma. The TGI in the test on HCC-2998 colon and with CAKI-1 renal was > 100 µM throughout.

These data come from PubChem BioAssay (NCI).
